Source: patent US20260315464A1, “COMPOSITIONS, METHODS, AND SYSTEMS FOR MODULATING SPLICING OF MSH3” (REVIR THERAPEUTICS, INC., priority 2023, published 2026)

System: MSH3
Experiment: QPCR assay for levels of MSH3 upon compound treatment in HEK293T or AD293 cells (fold-change of MSH3 transcript, EC50 of MSH3 downregulation; total MSH3 exons 13/14, exons 20/21; Table 8)
Type: cell-based
Conditions: for mrna remaining at 1 µM / mrna remaining at 10 µM: Homo sapiens, fold-change of the MSH3 transcript, normalized to GAPDH; for mrna remaining at 1 µM: 1 μM compound; for mrna remaining at 10 µM: 10 μM compound; for EC50: EC50 of MSH3 downregulation, XtalPi
Protocol: HEK293T or AD293 cells were treated with Compound 274 at 1 μM and […]. RNA, cDNA and qPCR was prepared using TaqMan Cells-to-CT Express kit (ThermoFisher Scientific). Taqman assays (ThermoFisher Scientific) were used for quantification of total MSH3 exons 13/14 (cat #4351372, ID #: Hs00988993_ml), total MSH3 exons 20/21 (cat #4351372, ID #: Hs00989000_ml), exon 13/PE14A (Fwd: 5′-[…]; Rev: 5′-[…]; Probe: 5′-[…]) and exon 20/PE21A (Fwd: 5′-[…]; Rev: 5′-[…]; Probe: 5′-[…]) mRNA expression. Taqman GAPDH (cat #4448489, ID #: Hs02758991_g1) was used as a reference for data normalization.

SMILES	mrna remaining at 1 µM [%]	mrna remaining at 10 µM [%]	EC50 [nM]
Cn1cc(-c2cc3c(cn2)CN(c2ccc(O[C@H]4C[C@]5(C)CC[C@](C)(C4)N5)nn2)C3=O)c(F)n1 [Compound 107, 2-(6-(((1R,3s,5S)-1,5-dimethyl-8-azabicyclo[3.2.1]octan-3-yl)oxy)pyridazin-3-yl)-6-(3-fluoro-1-methyl-1H-pyrazol-4-yl)-2,3-dihydro-1H-pyrrolo[3,4-c]pyridin-1-one]	97	75	
Cc1nn(C)cc1-c1cnc2c(c1)C(=O)N(c1ccc(OC3CC(C)(C)NC(C)(C)C3)nn1)C2 [Compound 141, 3-(1,3-dimethyl-1H-pyrazol-4-yl)-6-(6-((2,2,6,6-tetramethylpiperidin-4-yl)oxy)pyridazin-3-yl)-6,7-dihydro-5H-pyrrolo[3,4-b]pyridin-5-one]	67	6	
CN(c1ccc(N2Cc3ncc(-c4cnn(C)c4)cc3C2=O)nn1)C1CC(C)(C)NC(C)(C)C1 [Compound 148, 6-(6-(methyl(2,2,6,6-tetramethylpiperidin-4-yl)amino)pyridazin-3-yl)-3-(1-methyl-1H-pyrazol-4-yl)-6,7-dihydro-5H-pyrrolo[3,4-b]pyridin-5-one]	103	40	
Cc1nc(C)c(-c2cnc3c(c2)C(=O)N(c2ccc(OC4CC(C)(C)NC(C)(C)C4)nn2)C3)s1 [Compound 150, 3-(2,4-dimethylthiazol-5-yl)-6-(6-((2,2,6,6-tetramethylpiperidin-4-yl)oxy)pyridazin-3-yl)-6,7-dihydro-5H-pyrrolo[3,4-b]pyridin-5-one]	116	77	
Cc1nn(C)cc1-c1cnc2c(c1)C(=O)N(c1ccc(N(C)C3CC(C)(C)NC(C)(C)C3)nn1)C2 [Compound 156, 3-(1,3-dimethyl-1H-pyrazol-4-yl)-6-(6-(methyl(2,2,6,6-tetramethylpiperidin-4-yl)amino)pyridazin-3-yl)-6,7-dihydro-5H-pyrrolo[3,4-b]pyridin-5-one]	81	19	
[2H]C([2H])([2H])n1cc(-c2cnc3c(c2)C(=O)N(c2ccc(N(C)C4CC(C)(C)NC(C)(C)C4)nn2)C3)cn1 [Compound 161, 6-(6-(methyl(2,2,6,6-tetramethylpiperidin-4-yl)amino)pyridazin-3-yl)-3-(1-(methyl-d3)-1H-pyrazol-4-yl)-6,7-dihydro-5H-pyrrolo[3,4-b]pyridin-5-one]	96	70	
Cc1nc(C)c(-c2cnc3c(c2)C(=O)N(c2ccc(N(C)C4CC(C)(C)NC(C)(C)C4)nn2)C3)s1 [Compound 167, 3-(2,4-dimethylthiazol-5-yl)-6-(6-(methyl(2,2,6,6-tetramethylpiperidin-4-yl)amino)pyridazin-3-yl)-6,7-dihydro-5H-pyrrolo[3,4-b]pyridin-5-one]	47	11	
Cc1nc(C)c(-c2cnc3c(c2)C(=O)N(c2ccc(O[C@H]4C[C@]5(C)CC[C@](C)(C4)N5)nn2)C3)s1 [Compound 174, 6-(6-(((1R,3s,5S)-1,5-dimethyl-8-azabicyclo[3.2.1]octan-3-yl)oxy)pyridazin-3-yl)-3-(2,4-dimethylthiazol-5-yl)-6,7-dihydro-5H-pyrrolo[3,4-b]pyridin-5-one]	103	62	
Cc1nn(C)cc1-c1cnc2c(c1)C(=O)N(c1cnc(N(C)[C@H]3C[C@]4(C)CC[C@](C)(C3)N4)nn1)C2 [Compound 175, 3-(1,3-dimethyl-1H-pyrazol-4-yl)-6-(3-(((1R,3s,5S)-1,5-dimethyl-8-azabicyclo[3.2.1]octan-3-yl)(methyl)amino)-1,2,4-triazin-6-yl)-6,7-dihydro-5H-pyrrolo[3,4-b]pyridin-5-one]	93	70	
Cn1cc(-c2cnc3c(c2)C(=O)N(c2ccc(OC4CC(C)(C)NC(C)(C)C4)nn2)C3)c(C(F)(F)F)n1 [Compound 176, 3-(1-methyl-3-(trifluoromethyl)-1H-pyrazol-4-yl)-6-(6-((2,2,6,6-tetramethylpiperidin-4-yl)oxy)pyridazin-3-yl)-6,7-dihydro-5H-pyrrolo[3,4-b]pyridin-5-one]	94	110	
Cc1nn(C)nc1-c1cnc2c(c1)C(=O)N(c1ccc(N(C)[C@H]3C[C@]4(C)CC[C@](C)(C3)N4)nn1)C2 [Compound 178, 3-(2,5-dimethyl-2H-1,2,3-triazol-4-yl)-6-(6-(((1R,3s,5S)-1,5-dimethyl-8-azabicyclo[3.2.1]octan-3-yl)(methyl)amino)pyridazin-3-yl)-6,7-dihydro-5H-pyrrolo[3,4-b]pyridin-5-one]	10	5	425
Cc1nn(C)nc1-c1cnc2c(c1)C(=O)N(c1ccc(OC3CC(C)(C)NC(C)(C)C3)nn1)C2 [Compound 179, 3-(2,5-dimethyl-2H-1,2,3-triazol-4-yl)-6-(6-((2,2,6,6-tetramethylpiperidin-4-yl)oxy)pyridazin-3-yl)-6,7-dihydro-5H-pyrrolo[3,4-b]pyridin-5-one]	93	8	
Cc1nn(C)nc1-c1cnc2c(c1)C(=O)N(c1ccc(N(C)C3CC(C)(C)NC(C)(C)C3)nn1)C2 [Compound 180, 3-(2,5-dimethyl-2H-1,2,3-triazol-4-yl)-6-(6-(methyl(2,2,6,6-tetramethylpiperidin-4-yl)amino)pyridazin-3-yl)-6,7-dihydro-5H-pyrrolo[3,4-b]pyridin-5-one]	50	8	1120
Cc1nn(C)cc1-c1cnc2c(c1)C(=O)N(c1ccc(O[C@H]3C[C@@]4(C)CC[C@](C)(N4)[C@H]3F)nn1)C2 [Compound 181, 3-(1,3-dimethyl-1H-pyrazol-4-yl)-6-(6-(((1S,2R,3S,5R)-2-fluoro-1,5-dimethyl-8-azabicyclo[3.2.1]octan-3-yl)oxy)pyridazin-3-yl)-6,7-dihydro-5H-pyrrolo[3,4-b]pyridin-5-one]	92	103	
CN(c1ccc(N2Cc3ncc(-c4cn(C)nc4C(F)(F)F)cc3C2=O)nn1)[C@H]1C[C@]2(C)CC[C@](C)(C1)N2 [Compound 183, 6-(6-(((1R,3s,5S)-1,5-dimethyl-8-azabicyclo[3.2.1]octan-3-yl)(methyl)amino)pyridazin-3-yl)-3-(1-methyl-3-(trifluoromethyl)-1H-pyrazol-4-yl)-6,7-dihydro-5H-pyrrolo[3,4-b]pyridin-5-one]	99	28	
CN(c1ccc(N2Cc3ncc(-c4cn(C)nc4F)cc3C2=O)nn1)C1CC(C)(C)NC(C)(C)C1 [Compound 187, 3-(3-fluoro-1-methyl-1H-pyrazol-4-yl)-6-(6-(methyl(2,2,6,6-tetramethylpiperidin-4-yl)amino)pyridazin-3-yl)-6,7-dihydro-5H-pyrrolo[3,4-b]pyridin-5-one]	92	25	
CN(c1ccc(N2Cc3ncc(-c4cnn(C)n4)cc3C2=O)nn1)[C@H]1C[C@]2(C)CC[C@](C)(C1)N2 [Compound 188, 6-(6-(((1R,3s,5S)-1,5-dimethyl-8-azabicyclo[3.2.1]octan-3-yl)(methyl)amino)pyridazin-3-yl)-3-(2-methyl-2H-1,2,3-triazol-4-yl)-6,7-dihydro-5H-pyrrolo[3,4-b]pyridin-5-one]	18	5	960
CN(c1ccc(N2Cc3ncc(-c4cnn(C)n4)cc3C2=O)nn1)C1CC(C)(C)NC(C)(C)C1 [Compound 189, 6-(6-(methyl(2,2,6,6-tetramethylpiperidin-4-yl)amino)pyridazin-3-yl)-3-(2-methyl-2H-1,2,3-triazol-4-yl)-6,7-dihydro-5H-pyrrolo[3,4-b]pyridin-5-one]	73	23	
Cn1cc(-c2cnc3c(c2)C(=O)N(c2ccc(OC4CC(C)(C)NC(C)(C)C4)nn2)C3)c(F)n1 [Compound 190, 3-(3-fluoro-1-methyl-1H-pyrazol-4-yl)-6-(6-((2,2,6,6-tetramethylpiperidin-4-yl)oxy)pyridazin-3-yl)-6,7-dihydro-5H-pyrrolo[3,4-b]pyridin-5-one]	106	45	
Cn1ncc(-c2cnc3c(c2)C(=O)N(c2ccc(OC4CC(C)(C)NC(C)(C)C4)nn2)C3)n1 [Compound 191, 3-(2-methyl-2H-1,2,3-triazol-4-yl)-6-(6-((2,2,6,6-tetramethylpiperidin-4-yl)oxy)pyridazin-3-yl)-6,7-dihydro-5H-pyrrolo[3,4-b]pyridin-5-one]	45	17	
Cc1nc(C)c(-c2cnc3c(c2)C(=O)N(c2ccc(O[C@@H]4C[C@]5(C)CC[C@](C)(C4)N5)nn2)C3)s1 [Compound 194, 6-(6-(((1R,3r,5S)-1,5-dimethyl-8-azabicyclo[3.2.1]octan-3-yl)oxy)pyridazin-3-yl)-3-(2,4-dimethylthiazol-5-yl)-6,7-dihydro-5H-pyrrolo[3,4-b]pyridin-5-one]	224	92	
Cc1nc(C)c(-c2cnc3c(c2)C(=O)N(c2cnc(N(C)C4CC(C)(C)NC(C)(C)C4)nn2)C3)s1 [Compound 195, 3-(2,4-dimethylthiazol-5-yl)-6-(3-(methyl(2,2,6,6-tetramethylpiperidin-4-yl)amino)-1,2,4-triazin-6-yl)-6,7-dihydro-5H-pyrrolo[3,4-b]pyridin-5-one]	59	42	
